# Laboratory results reported in patent publication US7446102B2, “Antibacterial amide macrocycles IV” (priority 2004, dated 2008).
# Structures can show the parent of a compound that is named as a salt. Where two headings read alike, the source gives them in different places.
# Key:
# Type in all cases: cell-based
# S. aureus T17 = assay: Determination of the minimum inhibitory concentration (MIC), biphenomycin-resistant S. aureus T17; details: Staphylococcus aureus
# Protocol: (§1) Determination of the Minimum Inhibitory Concentration (MIC)
# (§2) The minimum inhibitory concentration (MIC) is the minimum concentration of an antibiotic with which the growth of a test microbe is inhibited over 18-24 h. The inhibitor concentration can in these cases be determined by standard microbiological methods (see, for example, The National Committee for Clinical Laboratory Standards. Methods for dilution antimicrobial susceptibility tests for bacteria that grow aerobically; approved standard-fifth edition. NCCLS document M7-A5 [ISBN 1-56238-394-9]. NCCLS, 940 West Valley Road, Suite 1400, Wayne, Pa. 19087-1898 USA, 2000). The MIC of the compounds of the invention is determined in the liquid dilution test on the 96-well microtitre plate scale. The bacterial microbes are cultivated in a minimal medium (18.5 mM Na2HPO4, 5.7 mM KH2PO4, 9.3 mM NH4Cl, 2.8 mM MgSO4, 17.1 mM NaCl, 0.033 μg/ml thiamine hydrochloride, 1.2 μg/ml nicotinic acid, 0.003 μg/ml biotin, 1% glucose, 25 μg/ml of each proteinogenic amino acid with the exception of phenylalanine; [H.-P. Kroll; unpublished]) with the addition of 0.4% BH broth (test medium). In the case of Enterococcus facium L4001, heat-inactivated fetal calf serum (FCS; GibcoBRL, Germany) is added to the test medium in a final concentration of 10%. Overnight cultures of the test microbes are diluted to an OD578 of 0.001 (to 0.01 in the case of enterococci) in fresh test medium, and incubated 1:1 with dilutions of the test substances (1:2 dilution steps) in test medium (200 μl final volume). The cultures are incubated at 37° C. for 18-24 hours; enterococci in the presence of 5% CO2.
# (§3) The lowest substance concentration in each case at which no visible bacterial growth occurred any more is defined as the MIC.
# (§4) Alternative Method for Determining the Minimum Inhibitory Concentration (MIC)
# (§5) The minimum inhibitory concentration (MIC) is the minimum concentration of an antibiotic with which the growth of a test microbe is inhibited over 18-24 h. The inhibitor concentration can in these cases be determined by standard microbiological methods with modified medium in an agar dilution test (see, for example, The National Committee for Clinical Laboratory Standards. Methods for dilution antimicrobial susceptibility tests for bacteria that grow aerobically; approved standard-fifth edition. NCCLS document M7-A5 [ISBN 1-56238-394-9]. NCCLS, 940 West Valley Road, Suite 1400, Wayne, Pa. 19087-1898 USA, 2000). The bacterial microbes are cultivated on 1.5% agar plates which contain 20% defibrinated horse blood. The test microbes, which are incubated overnight on Columbia blood agar plates (Becton-Dickinson), are diluted in PBS, adjusted to a microbe count of about […] and placed dropwise (1-3 μl) on test plates. The test substances comprise different dilutions of the test substances (1:2 dilution steps). The cultures are incubated at 37° C. in the presence of 5% CO2 for 18-24 hours.
# (§6) The lowest substance concentration in each case at which no visible bacterial growth occurred any more is defined as the MIC and is reported in μg/ml.
# The S. aureus strain T17 is isolated in vivo. CFW1 mice are infected intraperitoneally with 4×10^7 S. aureus 133 cells per mouse. 0.5 h after the infection, the animals are treated intravenously with 50 mg/kg biphenomycin B. The kidneys are removed from the surviving animals on day 3 after the infection. After homogenization of the organs, the homogenates are plated out as described for RN4220Bi^R on antibiotics-free and antibiotics-containing agar plates and incubated at 37° C. overnight. […] About 20 of these colonies are tested for the biphenomycin B MIC, and a colony with an MIC of >50 μM is selected for further cultivation, and the strain is referred to as T17.
# E. faecium L4001 = assay: Determination of the minimum inhibitory concentration (MIC), E. faecium L4001; details: Enterococcus faecium, L4001, read-out: MIC E. faecium L4001
# Protocol: as §1, §2, §3, §4, §5, §6
# S. aureus 133 = assay: Determination of the minimum inhibitory concentration (MIC), S. aureus 133; details: Staphylococcus aureus, 133, read-out: MIC S. aureus 133
# Protocol: as §1, §2, §3, §4, §5, §6
smiles,measurement,setting,value
"NC[C@H](O)C[C@@H]1NC(=O)[C@@H](N)Cc2cc(ccc2O)-c2ccc(O)c(c2)C[C@@H](C(=O)O)NC1=O [Example 20A, 14(S)-Amino-11(S)-(3-amino-2(R)-hydroxypropyl)-5,17-dihydroxy-10,13-dioxo-9,12-diazatricyclo[14.3.1.1^2,6]henicosa-1(19),2,4,6(21),16(20),17-hexaene-8(S)-carboxylic acid dihydrochloride, reference compound]",MIC,"S. aureus T17; biphenomycin-resistant strain, no visible bacterial growth, 18-24 h, 37° C., read-out: MIC S. aureus T17",> 32 µg/mL
same,MIC,"S. aureus T17; colony isolated from kidney of mice treated with 50 mg/kg biphenomycin B, read-out: MIC, selected colony (strain T17)",> 50 µM
same,MIC,E. faecium L4001,0.5 µg/mL
same,MIC,S. aureus 133,< 0.03 µg/mL
